Among the data in patent US20050137242A1, “Betamimetics having a long-lasting activity, processes for preparing them, and their use as medicaments” (Boehringer Ingelheim Pharma GmbH & Co. KG, priority 2000, published 2005) are melting point values, retold here.

SMILES strings stand for the structures. Where a name gives a salt, the structure may show the parent alone.

`COc1ccc(CNc2cc(C(O)CNC(C)(C)CCn3cnc4ccccc43)ccc2O)cc1` (stereo not shown) (as salt: acetate) [Example 3, 1-[3-(4-methoxybenzylamino)-4-hydroxyphenyl]-2-[4-(1-benzimidazolyl)-2-methyl-2-butylamino]ethanol] gave a melting point of 154 to 155 °C.

`COc1ccc(CC(C)(C)NCC(O)c2ccc(O)c3c2OCC(=O)N3)cc1` (stereo not shown) (as salt: hydrochloride) [Example 4, 1-[2H-5-hydroxy-3-oxo-4H-1,4-benzoxazin-8-yl]-2-[3-(4-methoxyphenyl)-2-methyl-2-propylamino]ethanol] showed a melting point of 202 to 205 °C.

On to `COc1ccc(-c2ncn(CCC(C)(C)NCC(O)c3ccc(O)c4c3OCC(=O)N4)n2)cc1` (stereo not shown) (as salt: hydrochloride) [Example 5, 1-[2H-5-hydroxy-3-oxo-4H-1,4-benzoxazin-8-yl]-2-{4-[3-(4-methoxyphenyl)-1,2,4-triazol-3-yl]-2-methyl-2-butylamino}ethanol], for which the melting point fell in the range of 175 to 179 °C.

Compound `CCCCOc1ccc(CC(C)(C)NCC(O)c2ccc(O)c3c2OCC(=O)N3)cc1` (stereo not shown) (as salt: methanesulfonate) [Example 2, 1-[2H-5-hydroxy-3-oxo-4H-1,4-benzoxazin-8-yl]-2-[3-(4-n-butyloxyphenyl)-2-methyl-2-propylamino]ethanol] came in with a melting point of 189 to 190 °C.
